This is an account of results in patent publication US20230398130A1, “METHODS AND COMPOSITIONS FOR DIFFERENTIATING STEM CELLS” (Massachusetts Institute of Technology, priority 2020, published 2023).

Experiment [1] relates to ISC-enriched organoids. Kind of experiment: Primary screen, 384-well 2.5-D organoid differentiation (ENR+CD, 6 days): basal lysozyme secretion (LYZ.NS). In kind it is cell-based, murine. The conditions noted are these: for Dose.FC.LYZ.NS: ENR+CD, 6 days, FC vs plate median; for Z.LYZ.NS: standard z score of FC. The text has this:
(§1) High-throughput screening.

Experiment [2] relates to ISC-enriched organoids. Kind of experiment: Primary screen, 384-well 2.5-D organoid differentiation (ENR+CD, 6 days): carbachol-induced lysozyme secretion (LYZ.S). In kind it is cell-based, murine. Conditions: ENR+CD, 6 days, FC vs plate median.
From the text: as §1

In experiment [3] the test system is ISC-enriched organoids. Kind of experiment: Primary screen, 384-well 2.5-D organoid differentiation (ENR+CD, 6 days, Target Selective Inhibitor Library, vs whole-plate median): ATP (CellTiter-Glo 3D, CTG). The conditions noted are these: for Dose.FC.CTG: ENR+CD, 6 days, FC vs plate median; for Z.CTG: standard z score of FC.

For the molecule `CC(C)c1cc(-c2n[nH]c(=O)n2-c2ccc3c(ccn3C)c2)c(O)cc1O` [Ganetespib (STA-9090)], the Dose.FC.LYZ.NS with ISC-enriched organoids [1] (Dose 0.08 uM) is recorded as −0.141 log 2 fold change; in the experiment with ISC-enriched organoids [1] (Dose 0.40 uM), −0.155 log 2 fold change; in the experiment on ISC-enriched organoids [1] (Dose 2.00 uM), −0.150 log 2 fold change; with ISC-enriched organoids [1] (Dose 10.00 uM) it was −0.136 log 2 fold change. The Z.LYZ.NS with ISC-enriched organoids [1] (Dose 0.08 uM) was −1.226; in the experiment with ISC-enriched organoids [1] (Dose 0.40 uM), −1.345; in the experiment with ISC-enriched organoids [1] (Dose 2.00 uM) it was −1.309; with ISC-enriched organoids [1] (Dose 10.00 uM), −1.181. The Dose.FC.LYZ.S is reported as −0.260 log 2 fold change in the experiment with ISC-enriched organoids [2] (Dose 0.08 uM), −0.250 log 2 fold change in the experiment on ISC-enriched organoids [2] (Dose 0.40 uM), −0.260 log 2 fold change in the experiment on ISC-enriched organoids [2] (Dose 2.00 uM) and −0.267 log 2 fold change in the experiment with ISC-enriched organoids [2] (Dose 10.00 uM). Also, the Dose.FC.CTG with ISC-enriched organoids [3] (Dose 0.08 uM) is reported as −1.450 log 2 fold change; in the experiment on ISC-enriched organoids [3] (Dose 0.40 uM), −2.105 log 2 fold change; in the experiment with ISC-enriched organoids [3] (Dose 2.00 uM) it was −1.721 log 2 fold change; in the experiment with ISC-enriched organoids [3] (Dose 10.00 uM), −1.620 log 2 fold change. The Z.CTG with ISC-enriched organoids [3] (Dose 0.08 uM) is on record as −3.465; with ISC-enriched organoids [3] (Dose 0.40 uM), −5.027; with ISC-enriched organoids [3] (Dose 2.00 uM), −4.110; with ISC-enriched organoids [3] (Dose 10.00 uM), −3.871.
As to `C[C@@H]1C(=O)O[C@H]2C[C@@]34[C@H]5C[C@@H](C(C)(C)C)[C@]36[C@@H](OC(=O)[C@@H]6O)O[C@@]4(C(=O)O5)[C@]21O` [Ginkgolide A], the Dose.FC.LYZ.NS with ISC-enriched organoids [1] (Dose 0.08 uM) was 0.045 log 2 fold change; in the experiment with ISC-enriched organoids [1] (Dose 0.40 uM), 0.025 log 2 fold change; in the experiment with ISC-enriched organoids [1] (Dose 2.00 uM), 0.030 log 2 fold change; in the experiment with ISC-enriched organoids [1] (Dose 10.00 uM) it was 0.052 log 2 fold change. For the same molecule, the Z.LYZ.NS is 0.395 in the experiment on ISC-enriched organoids [1] (Dose 0.08 uM), 0.222 in the experiment on ISC-enriched organoids [1] (Dose 0.40 uM), 0.258 in the experiment with ISC-enriched organoids [1] (Dose 2.00 uM) and 0.450 in the experiment on ISC-enriched organoids [1] (Dose 10.00 uM). Moreover, the Dose.FC.LYZ.S in the experiment with ISC-enriched organoids [2] (Dose 0.08 uM) is 0.124 log 2 fold change; in the experiment on ISC-enriched organoids [2] (Dose 0.40 uM), 0.161 log 2 fold change; in the experiment on ISC-enriched organoids [2] (Dose 2.00 uM), 0.002 log 2 fold change; with ISC-enriched organoids [2] (Dose 10.00 uM), −0.028 log 2 fold change. The Dose.FC.CTG with ISC-enriched organoids [3] (Dose 0.08 uM) is 0.005 log 2 fold change; in the experiment on ISC-enriched organoids [3] (Dose 0.40 uM) it was −0.017 log 2 fold change; in the experiment on ISC-enriched organoids [3] (Dose 2.00 uM), 0.040 log 2 fold change; in the experiment on ISC-enriched organoids [3] (Dose 10.00 uM) it was −0.012 log 2 fold change. The Z.CTG with ISC-enriched organoids [3] (Dose 0.08 uM) was 0.011; in the experiment on ISC-enriched organoids [3] (Dose 0.40 uM), −0.040; in the experiment with ISC-enriched organoids [3] (Dose 2.00 uM), 0.095; in the experiment with ISC-enriched organoids [3] (Dose 10.00 uM) it was −0.028.
With `CC1C(=O)OC2C(O)C34C5CC(C(C)(C)C)C36C(OC(=O)C6O)OC4(C(=O)O5)C12O` (stereo not drawn) [Ginkgolide B], the Dose.FC.LYZ.NS was 0.041 log 2 fold change with ISC-enriched organoids [1] (Dose 0.08 uM), 0.109 log 2 fold change in the experiment with ISC-enriched organoids [1] (Dose 0.40 uM), 0.061 log 2 fold change in the experiment on ISC-enriched organoids [1] (Dose 2.00 uM) and −0.037 log 2 fold change in the experiment with ISC-enriched organoids [1] (Dose 10.00 uM). Further, the Z.LYZ.NS with ISC-enriched organoids [1] (Dose 0.08 uM) was 0.353; with ISC-enriched organoids [1] (Dose 0.40 uM), 0.950; in the experiment on ISC-enriched organoids [1] (Dose 2.00 uM), 0.528; in the experiment with ISC-enriched organoids [1] (Dose 10.00 uM), −0.326. Also, the Dose.FC.LYZ.S is given as 0.034 log 2 fold change in the experiment with ISC-enriched organoids [2] (Dose 0.08 uM), 0.047 log 2 fold change in the experiment with ISC-enriched organoids [2] (Dose 0.40 uM), 0.033 log 2 fold change in the experiment on ISC-enriched organoids [2] (Dose 2.00 uM) and −0.035 log 2 fold change with ISC-enriched organoids [2] (Dose 10.00 uM). Moreover, the Dose.FC.CTG with ISC-enriched organoids [3] (Dose 0.08 uM) was −0.076 log 2 fold change; in the experiment on ISC-enriched organoids [3] (Dose 0.40 uM), 0.034 log 2 fold change; with ISC-enriched organoids [3] (Dose 2.00 uM), −0.154 log 2 fold change; with ISC-enriched organoids [3] (Dose 10.00 uM), 0.177 log 2 fold change. Also, the Z.CTG with ISC-enriched organoids [3] (Dose 0.08 uM) was −0.182; in the experiment with ISC-enriched organoids [3] (Dose 0.40 uM), 0.081; in the experiment on ISC-enriched organoids [3] (Dose 2.00 uM), −0.369; with ISC-enriched organoids [3] (Dose 10.00 uM) it was 0.422.
